Experimental data: PMC6348446 (Journal of Medicinal Chemistry, 2018)

Legend:
[1] = system: EOL-1 cells; experiment: Cell viability/proliferation (cellular ATP, CellTiterGlo) in EOL-1; type: cell-based; conditions: Homo sapiens, EOL1; EOL-1, text; read-out: EC50 (cytotoxicity, cell viability)
[2] = system: A-204 cells; experiment: Cell viability/proliferation (cellular ATP, CellTiterGlo) in A-204; type: cell-based; conditions: Homo sapiens, A204; A-204 (printed A-402); read-out: EC50 (cytotoxicity, cell viability)
Protocol: A-204 cells (1 × 10^3) were seeded per well of 384-well plates. After overnight incubation, compounds were added to the cells at logarithmic dose series using the HP digital dispenser D300 (Tecan), normalizing for added DMSO. 1 day and 8 days after seeding cellular ATP content was measured using CellTiterGlo (Promega). Measurements after 8 days were divided by the measurement after 1 day (i.e., the T0 plate) to derive fold proliferation. Data were analyzed with GraphPad Prism software to obtain EC50 values.

[3] = Intrinsic clearance in human liver microsomes; type: in vitro ADME; conditions: 0.5 µM compound
Protocol: compounds against known CHI values. The CHI value of test compounds was then calculated according to their retention time.
Test compounds were prepared as 0.25 mM solutions in 50:50 acetonitrile:water and analysed by reversed-phase HPLC-UV (wavelength 254 nm) using a ACE Excel 3 SuperC18, 3 µm, 50 x 2.1 mm column with a gradient of aqueous phase (10 mM ammonium acetate, pH 7.4) and mobile phase (acetonitrile).
Intrinsic clearance (Cli) experiments
Test compound (0.5 µM) was incubated with female CD1 mouse or human (mixed gender) liver microsomes (Xenotech LLCTM; 0.5 mg/mL 50mM potassium phosphate buffer, pH7.4) and the reaction initiated with addition of excess NADPH (8 mg/mL 50 mM potassium phosphate buffer, pH7.4). Immediately, at time zero, then at 3, 6, 9, 15 and 30 minutes an aliquot (50 µL) of the incubation mixture was removed and mixed with acetonitrile (100 µL) to stop the reaction. Internal standard was added to all samples, the samples centrifuged to sediment precipitated protein and the plates then sealed prior to […] analysis using […]
a Xevo TQ-S Micro (Waters corporation, USA).
XLfit (IDBS, UK) was used to calculate the exponential decay and consequently the rate constant (k) from the ratio of peak area of test compound to internal standard at each timepoint. The rate of intrinsic clearance (CLi) of each test compound was then calculated using the following calculation: […]

| SMILES | EC50 [1] [µM] | EC50 [2] [µM] | Microsomal stability (intrinsic clearance), Human [3] [mL/min/g liver] |
| --- | --- | --- | --- |
| COc1cc(-c2cn(C)c(=O)c3cnccc23)cc(OC)c1CN1CCN(CCCCCOc2cc(-c3scnc3C)ccc2CNC(=O)[C@@H]2C[C@@H](O)CN2C(=O)[C@@H](NC(=O)C2(F)CC2)C(C)(C)C)CC1 [Compound 51, (2S,4R)-N-(2-((5-(4-(2,6-Dimethoxy-4-(2-methyl-1-oxo-1,2-dihydro-2,7-naphthyridin-4-yl)benzyl)piperazin-1-yl)pentyl)oxy)-4-(4-methylthiazol-5-yl)benzyl)-1-((S)-2-(1-fluorocyclopropane-1-carboxamido)-3,3-dimethylbutanoyl)-4-hydroxypyrrolidine-2-carboxamide] | 0.003 | 0.04 | – |
| COc1cc(-c2cn(C)c(=O)c3cnccc23)cc(OC)c1CN1CCN(CCCCCOc2cc(-c3scnc3C)ccc2CNC(=O)[C@@H]2C[C@H](O)CN2C(=O)[C@@H](NC(=O)C2(F)CC2)C(C)(C)C)CC1 [cisVZ185] | – | – | 8.1 |
